This passage reports Ki results from patent US11034692B1 (Genentech, Inc., priority 2017, dated 2021).

The target in the assay is HPK1. In words: HPK1 Lantha Binding Assay ("Lanth"). To be noted: Table B1-1, read-out: HPK1 Ki (μM) (Lanth). An outline of the steps:
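Compounds in an 11-point 5-fold series were preincubated 1 h at 23 C with 2 nM kinase plus 2 nM Eu-anti-GST antibody. Then 15 nM Tracer222 was added for another hour, and time-resolved FRET was read at 665/615 nm. Ki values come from a Morrison tight-binding model that uses the tracer Kd.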
By Ki is commonly meant the equilibrium dissociation constant of an inhibitor or competing ligand from its target. With `Cc1ccc(C(=O)N(C)C)cc1-c1cc2cc(NC(=O)[C@@H]3C[C@H]3c3cnn(C)c3)ncc2c(N)n1` [Compound 291, 3-(1-amino-6-[[(1R,2R)-2-(1-methyl-1H-pyrazol-4-yl)cyclopropane]amido]-2,7-naphthyridin-3-yl)-N,N,4-trimethylbenzamide], the Ki is 63800 pM. Then `Cc1ccncc1-c1cc2cc(NC(=O)[C@H]3C[C@@H]3c3cnn(CCOCCN)c3)ncc2c(N)n1` [Compound 292, (1S,2S)—N-[8-amino-6-(4-methylpyridin-3-yl)-2,7-naphthyridin-3-yl]-2-[1-[2-(2-aminoethoxy)ethyl]-1H-pyrazol-4-yl]cyclopropane-1-carboxamide], with 41.7 pM; and `Cc1ccncc1-c1cc2cc(NC(=O)[C@@H]3C[C@H]3c3cnn(CCOCCN)c3)ncc2c(N)n1` [Compound 293, (1R,2R)—N-[8-amino-6-(4-methylpyridin-3-yl)-2,7-naphthyridin-3-yl]-2-[1-[2-(2-aminoethoxy)ethyl]-1H-pyrazol-4-yl]cyclopropane-1-carboxamide], with 668 pM; and `NCCOCCn1cc([C@H]2C[C@@H]2C(=O)Nc2cc3cc(-c4c(Cl)cccc4Cl)nc(N)c3cn2)cn1` [Compound 295, (1S,2S)—N-[8-amino-6-(2,6-dichlorophenyl)-2,7-naphthyridin-3-yl]-2-[1-[2-(2-aminoethoxy)ethyl]-1H-pyrazol-4-yl]cyclopropane-1-carboxamide], with 287 pM. With `NCCOCCn1cc([C@@H]2C[C@H]2C(=O)Nc2cc3cc(-c4c(Cl)cccc4Cl)nc(N)c3cn2)cn1` [Compound 296, (1R,2R)—N-[8-amino-6-(2,6-dichlorophenyl)-2,7-naphthyridin-3-yl]-2-[1-[2-(2-aminoethoxy)ethyl]-1H-pyrazol-4-yl]cyclopropane-1-carboxamide], the Ki was determined as 26 pM. As for `Cc1ccccc1-c1cc2cc(NC(=O)[C@@H]3C[C@H]3c3cnn(C)c3)ncc2c(N)n1` [Compound 298, (1R,2R)—N-[8-amino-6-(2-methylphenyl)-2,7-naphthyridin-3-yl]-2-(1-methyl-1H-pyrazol-4-yl)cyclopropane-1-carboxamide], the figure is 932 pM. On to `Cc1ccccc1-c1cc2cc(NC(=O)[C@H]3C[C@@H]3c3cnn(C)c3)ncc2c(N)n1` [Compound 299, (1S,2S)—N-[8-amino-6-(2-methylphenyl)-2,7-naphthyridin-3-yl]-2-(1-methyl-1H-pyrazol-4-yl)cyclopropane-1-carboxamide], for which the Ki came to 35.9 pM. As for `Cc1ccc(C#N)cc1-c1cc2cc(NC(=O)[C@@H]3C[C@H]3c3cnn(C)c3)ncc2c(N)n1` [Compound 300, (1R,2R)—N-[8-amino-6-(5-cyano-2-methylphenyl)-2,7-naphthyridin-3-yl]-2-(1-methyl-1H-pyrazol-4-yl)cyclopropane-1-carboxamide], the figure is 1360 pM. Regarding `Cc1ccc(C#N)cc1-c1cc2cc(NC(=O)[C@H]3C[C@@H]3c3cnn(C)c3)ncc2c(N)n1` [Compound 301, (1S,2S)—N-[8-amino-6-(5-cyano-2-methylphenyl)-2,7-naphthyridin-3-yl]-2-(1-methyl-1H-pyrazol-4-yl)cyclopropane-1-carboxamide], the Ki was 69.2 pM. `Cn1cc([C@@H]2C[C@H]2C(=O)Nc2cc3cc(-c4c(F)cccc4Cl)nc(N)c3cn2)cn1` [Compound 302, (1R,2R)—N-(8-amino-6-(2-chloro-6-fluorophenyl)-2,7-naphthyridin-3-yl)-2-(1-methyl-1H-pyrazol-4-yl)cyclopropanecarboxamide]: the Ki turned out to be 650 pM. As for `Cn1cc([C@H]2C[C@@H]2C(=O)Nc2cc3cc(-c4c(F)cccc4Cl)nc(N)c3cn2)cn1` [Compound 303, (1S,2S)—N-(8-amino-6-(2-chloro-6-fluorophenyl)-2,7-naphthyridin-3-yl)-2-(1-methyl-H-pyrazol-4-yl)cyclopropanecarboxamide], the figure is 27 pM; as for `Cn1cc([C@H]2C[C@@H]2C(=O)Nc2cc3cc(-c4ccccc4Cl)nc(N)c3cn2)cn1` [Compound 305, (1R,2R)—N-[8-amino-6-(2-chlorophenyl)-2,7-naphthyridin-3-yl]-2-(1-methyl-H-pyrazol-4-yl)cyclopropane-1-carboxamide], 152 pM; as for `Cc1cc(-c2ncco2)ncc1-c1cc2cc(NC(=O)[C@H]3C[C@@H]3c3cnn(C)c3)ncc2c(N)n1` [Compound 308, (1S,2S)—N-[8-amino-6-[4-methyl-6-(1,3-oxazol-2-yl)pyridin-3-yl]-2,7-naphthyridin-3-yl]-2-(1-methyl-1H-pyrazol-4-yl)cyclopropane-1-carboxamide], 3040 pM. For `Cc1cc(-c2ncco2)ncc1-c1cc2cc(NC(=O)[C@@H]3C[C@H]3c3cnn(C)c3)ncc2c(N)n1` [Compound 309, (1R,2R)—N-[8-amino-6-[4-methyl-6-(1,3-oxazol-2-yl)pyridin-3-yl]-2,7-naphthyridin-3-yl]-2-(1-methyl-1H-pyrazol-4-yl)cyclopropane-1-carboxamide], the Ki was found to be 184 pM. Take `N#CC[C@H]1C[C@@H]1C(=O)Nc1cc2cc(-c3c(Cl)cccc3Cl)nc(N)c2cn1` [Compound 310, (1S,2R)—N-(8-amino-6-(2,6-dichlorophenyl)-2,7-naphthyridin-3-yl)-2-(cyanomethyl)cyclopropanecarboxamide]: the Ki is 67.5 pM. Consider `N#CC[C@@H]1C[C@H]1C(=O)Nc1cc2cc(-c3c(Cl)cccc3Cl)nc(N)c2cn1` [Compound 311, (1R,2S)—N-(8-amino-6-(2,6-dichlorophenyl)-2,7-naphthyridin-3-yl)-2-(cyanomethyl)cyclopropanecarboxamide], for which the Ki was 1150 pM. Consider `Cc1ccncc1-c1cc2cc(NC(=O)[C@@H]3C[C@@]34CCNC(=O)C4)ncc2c(N)n1` [Compound 312, (1R,3S)—N-[8-amino-6-(4-methylpyridin-3-yl)-2,7-naphthyridin-3-yl]-5-oxo-6-azaspiro[2.5]octane-1-carboxamide], for which the Ki is 5770 pM. For `Cc1ccncc1-c1cc2cc(NC(=O)[C@H]3C[C@]34CCNC(=O)C4)ncc2c(N)n1` [Compound 313, (1S,3R)—N-[8-amino-6-(4-methylpyridin-3-yl)-2,7-naphthyridin-3-yl]-5-oxo-6-azaspiro[2.5]octane-1-carboxamide], the Ki turned out to be 20 pM. As for `Cc1ccncc1-c1cc2cc(NC(=O)[C@H]3C[C@@]34CCNC(=O)C4)ncc2c(N)n1` [Compound 314, (1S,3S)—N-[8-amino-6-(4-methylpyridin-3-yl)-2,7-naphthyridin-3-yl]-5-oxo-6-azaspiro[2.5]octane-1-carboxamide], the figure is 13100 pM. Then `Cc1ccncc1-c1cc2cc(NC(=O)[C@@H]3C[C@]34CCNC(=O)C4)ncc2c(N)n1` [Compound 315, (1R,3R)—N-[8-amino-6-(4-methylpyridin-3-yl)-2,7-naphthyridin-3-yl]-5-oxo-6-azaspiro[2.5]octane-1-carboxamide], with 12200 pM. As for `Cc1ccncc1-c1nc(N)c2cnc(NC(=O)[C@@H]3C[C@H]3CC#N)cc2c1C1CC1` [Compound 316, (1R,2S)—N-(8-amino-5-cyclopropyl-6-(4-methylpyridin-3-yl)-2,7-naphthyridin-3-yl)-2-(cyanomethyl)cyclopropanecarboxamide], the figure is 522 pM; as for `Cc1ccncc1-c1nc(N)c2cnc(NC(=O)[C@H]3C[C@@H]3CC#N)cc2c1C1CC1` [Compound 317, (1S,2R)—N-(8-amino-5-cyclopropyl-6-(4-methylpyridin-3-yl)-2,7-naphthyridin-3-yl)-2-(cyanomethyl)cyclopropanecarboxamide], 20 pM. As to `Cc1ccnc(-c2ccccc2)c1-c1cc2cc(NC(=O)[C@H]3C[C@@H]3c3cnn(C)c3)ncc2c(N)n1` [Compound 318, (1S,2S)—N-(8-amino-6-(4-methyl-2-phenylpyridin-3-yl)-2,7-naphthyridin-3-yl)-2-(1-methyl-1H-pyrazol-4-yl)cyclopropanecarboxamide], the Ki is 32 pM. Then `Cc1ccnc(-c2ccccc2)c1-c1cc2cc(NC(=O)[C@@H]3C[C@H]3c3cnn(C)c3)ncc2c(N)n1` [Compound 319, (1R,2R)—N-(8-amino-6-(4-methyl-2-phenylpyridin-3-yl)-2,7-naphthyridin-3-yl)-2-(1-methyl-1H-pyrazol-4-yl)cyclopropanecarboxamide], with 20 pM; and `Cc1ccncc1-c1cc2cc(NC(=O)[C@H]3CC[C@@H]3C)ncc2c(N)n1` [Compound 320, (1S,2S)—N-(8-amino-6-(4-methylpyridin-3-yl)-2,7-naphthyridin-3-yl)-2-methylcyclobutanecarboxamide], with 7820 pM.

Regarding `Cc1ccncc1-c1cc2cc(NC(=O)[C@H]3CC[C@H]3C)ncc2c(N)n1` [Compound 321, (1S,2R)—N-(8-amino-6-(4-methylpyridin-3-yl)-2,7-naphthyridin-3-yl)-2-methylcyclobutanecarboxamide], the Ki came to 57400 pM. For the compound `Cc1ccncc1-c1cc2cc(NC(=O)[C@@H]3CC[C@H]3C)ncc2c(N)n1` [Compound 322, (1R,2R)—N-(8-amino-6-(4-methylpyridin-3-yl)-2,7-naphthyridin-3-yl)-2-methylcyclobutanecarboxamide], the Ki was found to be 14800 pM. As for `Cc1ccncc1-c1cc2cc(NC(=O)[C@@H]3CC[C@@H]3C)ncc2c(N)n1` [Compound 323, (1R,2S)—N-(8-amino-6-(4-methylpyridin-3-yl)-2,7-naphthyridin-3-yl)-2-methylcyclobutanecarboxamide], the figure is 76300 pM; as for `Cc1ccncc1-c1cc2cc(NC(=O)[C@H]3C[C@@H]3C3CCOCC3)ncc2c(N)n1` [Compound 324, (1S,2R)—N-[8-amino-6-(4-methylpyridin-3-yl)-2,7-naphthyridin-3-yl]-2-(oxan-4-yl)cyclopropane-1-carboxamide], 480 pM; as for `Cc1ccncc1-c1cc2cc(NC(=O)[C@@H]3C[C@H]3C3CCOCC3)ncc2c(N)n1` [Compound 325, (1R,2S)—N-[8-amino-6-(4-methylpyridin-3-yl)-2,7-naphthyridin-3-yl]-2-(oxan-4-yl)cyclopropane-1-carboxamide], 3430 pM.
